Series [1] in a line: The drug is tested on Z-030 corresponding to mouse gut metagenome with ENA study accession number: PRJEB37062 and ENA sample accession number: ERS12561829 for biotransformation under anaerobic condition. The drug concentrations were measured over 9 timepoints collected between 0 and 24 hours of incubation by liquid-chromatography-coupled mass spectrometry (LC–MS). Conditions: 2 µM.

A short description of series [2]: The drug is tested on Z-027 corresponding to metagenome with ENA study accession number: PRJEB37062 and ENA sample accession number: ERS12561826 for biotransformation under anaerobic condition. The drug concentrations were measured over 9 timepoints collected between 0 and 24 hours of incubation by liquid-chromatography-coupled mass spectrometry (LC–MS). Conditions: 2 µM.

Series [3] is described as follows: The drug is tested on Z-022 corresponding to mouse gut metagenome with ENA study accession number: PRJEB37062 and ENA sample accession number: ERS12561821 for biotransformation under anaerobic condition. The drug concentrations were measured over 9 timepoints collected between 0 and 24 hours of incubation by liquid-chromatography-coupled mass spectrometry (LC–MS). Conditions: 2 µM.

The nature of series [4]: The drug is tested on Z-020 corresponding to rabbit gut metagenome with ENA study accession number: PRJEB37062 and ENA sample accession number: ERS12561819 for biotransformation under anaerobic condition. The drug concentrations were measured over 9 timepoints collected between 0 and 24 hours of incubation by liquid-chromatography-coupled mass spectrometry (LC–MS). Conditions: 2 µM.

A short description of series [5]: The drug is tested on Z-012 corresponding to metagenome with ENA study accession number: PRJEB37062 and ENA sample accession number: ERS12561812 for biotransformation under anaerobic condition. The drug concentrations were measured over 9 timepoints collected between 0 and 24 hours of incubation by liquid-chromatography-coupled mass spectrometry (LC–MS). Conditions: 2 µM.

Series [6] is described as follows: The drug is tested on Z-008 corresponding to metagenome with ENA study accession number: PRJEB37062 and ENA sample accession number: ERS12561808 for biotransformation under anaerobic condition. The drug concentrations were measured over 9 timepoints collected between 0 and 24 hours of incubation by liquid-chromatography-coupled mass spectrometry (LC–MS). Conditions: 2 µM.

Series [7] can be described thus: The drug is tested on Z-005 corresponding to metagenome with ENA study accession number: PRJEB37062 and ENA sample accession number: ERS12561805 for biotransformation under anaerobic condition. The drug concentrations were measured over 9 timepoints collected between 0 and 24 hours of incubation by liquid-chromatography-coupled mass spectrometry (LC–MS). Conditions: 2 µM.

Series [8] can be described thus: The drug is tested on Z-001 corresponding to mouse gut metagenome with ENA study accession number: PRJEB37062 and ENA sample accession number: ERS12561801 for biotransformation under anaerobic condition. The drug concentrations were measured over 9 timepoints collected between 0 and 24 hours of incubation by liquid-chromatography-coupled mass spectrometry (LC–MS). Conditions: 2 µM.

Series [9] in a line: The drug is tested on WLS-077 corresponding to human gut metagenome with ENA study accession number: PRJEB37062 and ENA sample accession number: ERS12561750 for biotransformation under anaerobic condition. The drug concentrations were measured over 9 timepoints collected between 0 and 24 hours of incubation by liquid-chromatography-coupled mass spectrometry (LC–MS). Conditions: 2 µM.

A short description of series [10]: The drug is tested on WLS-027 corresponding to human gut metagenome with ENA study accession number: PRJEB37062 and ENA sample accession number: ERS12561744 for biotransformation under anaerobic condition. The drug concentrations were measured over 9 timepoints collected between 0 and 24 hours of incubation by liquid-chromatography-coupled mass spectrometry (LC–MS). Conditions: 2 µM.

The conditions of series [11]: human gut metagenome, 24 h, 2 µM.
The conditions of series [12]: human gut metagenome, 24 h, 2 µM. The source holds these as a separate data set.
For series [13] the following is noted: human gut metagenome, 24 h, 2 µM. This is another data set of the same source.
For series [14] the following is noted: human gut metagenome, 24 h, 2 µM. The source holds these as a separate data set.
The conditions of series [15]: human gut metagenome, 24 h, 2 µM. The source holds these as a separate data set.
The conditions of series [16]: human gut metagenome, 24 h, 2 µM. This is another data set of the same source.
For series [17] the following is noted: human gut metagenome, 24 h, 2 µM. The source holds these as a separate data set.
For series [18] the following is noted: human gut metagenome, 24 h, 2 µM. The source holds these as a separate data set.
For series [19] the following is noted: human gut metagenome, 24 h, 2 µM. This is another data set of the same source.
For series [20] the following is noted: human gut metagenome, 24 h, 2 µM. This is another data set of the same source.

SMILES strings stand for the structures.
Further: call rule not given here.

With `CC12CC3CC(C)(C1)CC(N)(C3)C2` [MEMANTINE], the “Bacterial Biotransformation” value in series [1] is listed as “Compound NOT metabolized”; in series [2], “Compound NOT metabolized”; in series [3], “Compound metabolized”; in [4] it was “Compound NOT metabolized”; in series [5] it was “Compound NOT metabolized”; in series [6], “Compound NOT metabolized”. Moreover, the “Bacterial Biotransformation” value in series [7], in series [8], in series [9], in series [10], in [11] and in series [12] was “Compound NOT metabolized” in each case. In addition, the “Bacterial Biotransformation” value in [13], in series [14], in series [15], in series [16], in series [17] and in [18] was “Compound NOT metabolized” throughout. Also, the “Bacterial Biotransformation” value in [19] and in series [20] was “Compound NOT metabolized” each time.

As to `COc1cc2nc(N3CCN(C(=O)C4CCCO4)CC3)nc(N)c2cc1OC` (stereo not given) [TERAZOSIN], the “Bacterial Biotransformation” value in series [1], in series [2], in [3], in [4], in series [5] and in series [6] was “Compound NOT metabolized” in each case. Besides, the “Bacterial Biotransformation” value is recorded as “Compound metabolized” in [7]; “Compound NOT metabolized” in [8]; “Compound NOT metabolized” in series [9]; “Compound NOT metabolized” in [10]; “Compound NOT metabolized” in series [11]; “Compound NOT metabolized” in series [12]. In addition, the “Bacterial Biotransformation” value in series [13] is reported as “Compound NOT metabolized”; in series [14], “Compound NOT metabolized”; in series [15] it was “Compound metabolized”; in series [16] it was “Compound NOT metabolized”; in series [17], “Compound metabolized”; in [18] it was “Compound metabolized”. Further, the “Bacterial Biotransformation” value in [19] and in series [20] was “Compound NOT metabolized” each time.

For `CC#C[C@]1(O)CC[C@H]2[C@@H]3CCC4=CC(=O)CCC4=C3[C@@H](c3ccc(N(C)C)cc3)C[C@@]21C` [MIFEPRISTONE], the “Bacterial Biotransformation” value in series [1] is “Compound NOT metabolized”; in [2], “Compound NOT metabolized”; in [3], “Compound NOT metabolized”; in series [4] it was “Compound metabolized”; in series [5] it was “Compound NOT metabolized”; in series [6], “Compound metabolized”. Further, the “Bacterial Biotransformation” value in [7] was “Compound metabolized”; in series [8], “Compound NOT metabolized”; in series [9], “Compound NOT metabolized”; in [10] it was “Compound metabolized”; in series [11] it was “Compound NOT metabolized”; in series [12] it was “Compound NOT metabolized”. For the same molecule, the “Bacterial Biotransformation” value is “Compound NOT metabolized” in [13]; “Compound NOT metabolized” in series [14]; “Compound metabolized” in series [15]; “Compound metabolized” in [16]; “Compound NOT metabolized” in series [17]; “Compound metabolized” in series [18]. For the same molecule, the “Bacterial Biotransformation” value in series [19] and in series [20] was “Compound NOT metabolized” throughout.

Turning to `COc1ccc2c(c1)c(CC(=O)O)c(C)n2C(=O)c1ccc(Cl)cc1` [INDOMETHACIN], the “Bacterial Biotransformation” value in series [1] was “Compound NOT metabolized”; in series [2] it was “Compound metabolized”; in series [3] it was “Compound NOT metabolized”; in series [4], “Compound metabolized”; in series [5] it was “Compound NOT metabolized”; in [6], “Compound NOT metabolized”. Besides, the “Bacterial Biotransformation” value in [7] is recorded as “Compound NOT metabolized”; in series [8], “Compound NOT metabolized”; in series [9] it was “Compound metabolized”; in [10], “Compound metabolized”; in series [11] it was “Compound metabolized”; in [12] it was “Compound metabolized”. In addition, the “Bacterial Biotransformation” value in series [13] was “Compound metabolized”; in [14] it was “Compound metabolized”; in series [15], “Compound metabolized”; in series [16], “Compound NOT metabolized”; in series [17] it was “Compound metabolized”; in series [18], “Compound metabolized”. Moreover, the results for the “Bacterial Biotransformation” value in series [19] and in series [20] were “Compound metabolized” and “Compound NOT metabolized”, respectively.

As to `CCOc1ccc2nc(S(N)(=O)=O)sc2c1` [ETHOXZOLAMIDE], the “Bacterial Biotransformation” value in series [1], in [2], in series [3], in series [4], in series [5] and in series [6] was “Compound NOT metabolized” throughout. Moreover, the “Bacterial Biotransformation” value in series [7], in series [8], in series [9], in [10], in series [11] and in [12] was “Compound NOT metabolized” in each case. For the same molecule, the “Bacterial Biotransformation” value in [13] was “Compound NOT metabolized”; in series [14] it was “Compound NOT metabolized”; in series [15], “Compound NOT metabolized”; in [16], “Compound NOT metabolized”; in series [17], “Compound NOT metabolized”; in series [18], “Compound metabolized”. The “Bacterial Biotransformation” value in series [19] and in [20] was “Compound NOT metabolized” in each case.

Values taken from ChEMBL document CHEMBL5724914, “Linking interpersonal differences in gut microbiota composition and drug biotransformation activity” (2024).
